Results: PubChem BioAssay (NCI)
Where “and” joins values, the source holds several entries; their conditions need not be identical. Equal values may be shown once.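 Grown in 96-well plates, cells were treated for 48 hours with each compound at five concentrations. Insufficient inhibition: endpoint recorded as highest concentration tested. The concentration for 50% growth inhibition is given as GI50. Definition used: TGI = concentration required for complete inhibition of growth.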

How the values were obtained:
Test in all cases: NCI tumour cell line growth inhibition, 48 h
[1] = test system: MALME-3M melanoma
[2] = test system: HOP-92 NSCLC
[3] = test system: UO-31 renal
[4] = test system: RXF 393 renal
[5] = test system: HCT-116 colon
[6] = test system: SK-MEL-2 melanoma
[7] = test system: COLO 205 colon
[8] = test system: T-47D breast
[9] = test system: TK-10 renal
[10] = test system: HCC-2998 colon

Compound	GI50 [1] [µM]	TGI [1] [µM]	GI50 [2] [µM]	TGI [2] [µM]	GI50 [3] [µM]	TGI [3] [µM]	GI50 [4] [µM]	TGI [4] [µM]	GI50 [5] [µM]	TGI [5] [µM]	GI50 [6] [µM]	TGI [6] [µM]	GI50 [7] [µM]	TGI [7]	GI50 [8] [µM]	TGI [8] [µM]	GI50 [9] [µM]	TGI [9] [µM]	TGI [10]	GI50 [10] [µM]
CCCCCCCCCCCCCCCC(=O)OCC1OC(OCCCC)[C@H](O[C@@H]2OC(C)C(OC(=O)CCC)C(O)C2O)C(O)C1O (some centres not stated)	16.7	42.4	17	33.2	28.3	> 100	22.3	61.2	15.4	28.7	41.2	> 100	17.8	37.2 µM	18.7	40	15.6	30.2	–	–
O=C1CC[C@@H](S(=O)(=O)c2ccccc2)[C@H](/C=C/c2ccccc2)O1	–	> 100	–	–	–	> 100	–	> 100	–	> 100	–	–	–	> 100 µM	–	–	–	> 100	> 100 µM	–
C=C1C2CCCC1C1(S(C)(=O)=O)CCCCC21O (configuration not stated)	–	> 100	–	–	–	> 100	–	–	–	> 100	–	> 100	–	> 100 µM	–	–	–	> 100	> 100 µM	–
CN(C)CC1CCCC/C1=N\OC(=O)c1ccccc1 (configuration not stated)	–	> 100	–	> 100	–	> 100	–	> 100	–	> 100	–	> 100	–	> 100 µM	–	–	–	> 100	> 100 µM	–
C=CCc1cc(OC)c(O)c(C(=O)/C=C/c2ccc(OC)c(OC)c2)c1	–	37	–	–	–	29.6	–	–	–	27.6	–	28.8	–	31.4 µM	–	–	–	64.1	38.6 µM	–
O=C1NC(c2cccc3ccccc23)Nc2ccc(Cl)cc21 (configuration not stated)	–	37.7	–	–	–	0.00836	–	0.0261	–	12.1	–	–	–	0.0175 µM and 0.0795 µM	–	68.5	–	–	0.285 µM and 0.0607 µM	–
CC(=O)[CH-]C(=O)c1ccccc1.CC(=O)[CH-]C(=O)c1ccccc1.CC(=O)[CH-]C(=O)c1ccccc1.[Cl-].[Hf+4]	14.8	39.8	18.9	50.4	–	–	47.4	> 100	–	–	18.1	53.2	34	> 100 µM	–	–	39	> 100	–	–
NC(N)=NCCCC(Nc1c2ccccc2nc2ccccc12)C(=O)O (configuration not stated)	–	> 100	–	> 100	–	–	–	> 100	–	> 100	–	> 100	–	> 100 µM	–	–	–	> 100	> 100 µM	–
[pH]1p2[pH]p3p1p3[pH]2.c1cc[c]([Ge]([c]2ccccc2)[c]2ccccc2)cc1.c1cc[c]([Ge]([c]2ccccc2)[c]2ccccc2)cc1.c1cc[c]([Ge]([c]2ccccc2)[c]2ccccc2)cc1	14.3	28.1	12.8	29.8	16.3	29.8	64.9	> 100	22.2	62.3	19.4	34.9	12.1	26.2 µM	–	–	18.5	33.5	31 µM	17
O=C(Nc1ccc(Nc2ccc(NC(=O)c3ccccc3)c3c2C(=O)c2ccccc2C3=O)c2c1C(=O)c1ccccc1C2=O)c1ccccc1	–	> 100	–	–	–	> 100	–	> 100	–	> 100	–	> 100	–	> 100 µM	–	–	–	> 100	> 100 µM	–
N=C1C(c2nc3ccccc3c(=O)[nH]2)=C(O)CN1c1cccc(Cl)c1	1.03	10.7	> 100	> 100	13.3	> 100	2.6	> 27.3	2.79	> 100	> 100	> 100	5.07	> 100 µM	–	–	6.68	> 50.6	> 100 µM	34.3
COc1ccc(C(=O)C(c2ccc(OC)cc2)C2(O)C(=O)Nc3c(Cl)cc(Cl)cc32)cc1 (configuration not stated)	–	29.8	–	33.2	–	62.2	–	39.6	–	–	–	31.5	–	74.3 µM	–	–	–	55	–	–
COc1c(CC(C)=O)c2ccccc2n1C(C)=O	–	–	–	> 100	–	> 100	–	> 100	–	> 100	–	> 100	–	> 100 µM	–	–	–	–	> 100 µM	–
CS(=O)(=O)ON1C(=O)c2ccc(N)cc2C1=O	–	> 100	–	> 100	–	> 100	–	> 71	–	> 100	–	> 100	–	> 100 µM	–	–	–	> 100	> 100 µM	–
Cc1[nH]c2ccccc2c1/C=C/c1c(C)[nH]c2ccccc12	–	> 100	–	–	–	> 100	–	> 100	–	> 100	–	> 100	–	–	–	–	–	> 100	> 100 µM	–
O=C1C=C(Nc2cc(Cl)ccc2Cl)c2ccccc2C1=O	–	39.4	–	69.7	–	> 100	–	> 100	–	> 100	–	33.9	–	> 100 µM	–	–	–	–	> 100 µM	–
COc1ccc(N=Nc2c(-c3ccccc3)nn(C(=O)CC(=O)Nc3ccc(OC)cc3)c2-c2ccccc2)cc1	–	> 100	–	50	–	> 100	–	–	–	> 100	–	> 100	–	> 100 µM	–	–	–	> 100	> 100 µM	–
Oc1ccc(I)c2cccnc12	–	61.8	–	> 100	–	32.5	–	33.1	–	> 100	–	71.4	–	79 µM	–	–	–	> 100	–	–
N#Cc1ncc(-c2ccc(C(F)(F)F)cc2)c(NC2CCCCCC2)n1	> 100	> 100	–	–	12	> 100	5.12	> 100	5.25	> 100	–	–	13.2	62.1 µM	6	> 100	91	> 100	> 100 µM	13.2
NNC(=O)N/N=C(/CC1(O)C(=O)Nc2ccc(Br)cc21)c1ccccc1 (configuration not stated)	–	> 100	–	63.8	–	49.3	–	–	–	72.6	–	85.2	–	–	–	–	–	> 100	–	–

Compound	GI50 [1] [µM]	TGI [1] [µM]	GI50 [2] [µM]	TGI [2] [µM]	GI50 [3] [µM]	TGI [3] [µM]	GI50 [4] [µM]	TGI [4] [µM]	GI50 [5] [µM]	TGI [5] [µM]	GI50 [6] [µM]	TGI [6] [µM]	GI50 [7] [µM]	TGI [7]	GI50 [8] [µM]	TGI [8] [µM]	GI50 [9] [µM]	TGI [9] [µM]	TGI [10]	GI50 [10] [µM]
CN(C)Cc1ccc(O)c(CN(C)C)n1	–	> 100	–	> 100	–	> 100	–	> 100	–	> 100	–	> 100	–	> 100 µM	–	> 100	–	> 100	–	–
COC12OCCN(C)C1=CC(=O)C1N=NCC12 (configuration not stated)	–	–	–	> 100	–	> 100	–	> 100	–	> 100	–	–	–	> 100 µM	–	–	–	> 100	> 100 µM	–
Nc1nc2c(ncn2C2OC(CO)C(O)C2O)c(=O)o1 (configuration not stated)	–	> 100	–	> 100	–	> 100	–	> 100	–	> 100	–	> 100	–	> 100 µM	–	–	–	> 100	> 100 µM	–
CCCCN(CCCC)CC(C(=O)Nc1ccc([N+](=O)[O-])cc1[N+](=O)[O-])/C(C)=N\NC(=O)c1ccncc1 (configuration not stated)	–	> 100	–	> 100	–	> 100	–	> 100	–	–	–	> 100	–	> 100 µM	–	–	–	> 100	> 100 µM	–
NC(=S)N/N=C/C(O[C@@H](/C=N/NC(N)=S)CO)n1cnc2c(N)ncnc21 (some centres not stated)	–	> 100	–	> 100	–	> 100	–	> 100	–	> 61.9	–	–	–	> 75.9 µM	–	–	–	> 100	> 100 µM	–
C/C(=C\CNc1ncnc2c1ncn2C1CCCCO1)COP(=O)(O)O (configuration not stated)	–	> 100	–	> 100	–	> 100	–	> 100	–	> 100	–	> 100	–	> 100 µM	–	–	–	> 100	> 100 µM	–
O=C1CCC2(c3ccccc3)OCC([C@@H](O)c3ccccc3)N12 (some centres not stated)	–	> 100	–	> 100	–	–	–	> 100	–	> 100	–	> 100	–	> 100 µM	–	–	–	> 100	–	–
COc1cccc(N2C(=N)/C(=C3\Nc4ccccc4S3)CC2=O)c1	> 100	> 100	–	–	4.1	> 100	2.61	11.1	6.22	> 100	48.4	> 100	9.25	> 100 µM	18.9	> 100	17.8	> 100	–	–
O=C(CC(=O)N1N=C(n2ccc3ccccc32)CC1c1ccccc1)Nc1ccccc1Cl (configuration not stated)	–	> 100	–	> 100	–	> 100	–	> 100	–	> 100	–	> 100	–	> 100 µM	–	–	–	> 100	> 100 µM	–
CC1CN1c1c(C(=O)/C=C/c2ccc(F)cc2)c(-c2ccccc2)nn(C)c1=O (configuration not stated)	–	30	–	23.2	–	25.5	–	22	–	27.3	–	37.9	–	33 µM	–	–	–	31	28.7 µM	–
CCP(C)(=O)CC	–	> 100	–	> 100	–	> 100	–	> 100	–	> 100	–	> 100	–	> 100 µM	–	–	–	> 100	> 100 µM	–
COC(=O)C1=C(C)N(NC(N)=O)C2(N)N(NC(N)=O)C(C)=C(C(=O)OC)C12C#N (configuration not stated)	–	> 100	–	> 100	–	> 100	–	–	–	> 100	–	> 100	–	> 100 µM	–	–	–	> 100	> 100 µM	–
CC(C)(C)c1cc(Cc2ccc(S(C)(=O)=O)cc2)c(O)c(C(C)(C)C)c1	–	32.7	–	–	–	29.6	–	26.1	–	27	–	30.4	–	–	–	–	–	31.7	29.8 µM	–
CC(=O)[CH-]C(=O)c1ccccc1.CC(=O)[CH-]C(=O)c1ccccc1.CC[C@H](CCC(C)[C@H]1CCC2[C@@H]3CC=C4C[C@@H]([O-])CC[C@]4(C)C3CC[C@@]21C)C(C)C.CC[C@H](CCC(C)[C@H]1CCC2[C@@H]3CC=C4C[C@@H]([O-])CC[C@]4(C)C3CC[C@@]21C)C(C)C.Cl.[Ti+4] (some centres not stated)	–	> 25	–	–	–	> 25	> 25	> 25	–	> 25	–	> 25	–	> 25 µM	–	–	–	> 25	> 25 µM	–
c1ccc(-c2sc(-c3ccccc3)c3c2C(c2ccccc2)c2c(-c4ccccc4)sc(-c4ccccc4)c2C3c2ccccc2)cc1 (configuration not stated)	–	> 100	–	> 100	–	> 100	–	> 100	–	> 100	–	–	–	> 100 µM	–	–	–	> 100	> 100 µM	–
Cc1cc(C)c([O-])c(-[n+]2c(-c3ccccc3)cc(-c3ccccc3)cc2-c2ccccc2)c1	–	16.7	–	5.48	–	33.7	–	20.2	–	10.9	–	10.2	–	12.2 µM	–	–	–	19.4	13.6 µM	–
CN1CCN(CCCCCOc2cc(O)c3c(=O)cc(-c4ccccc4)oc3c2)CC1	0.898	4.31	–	–	1.71	3.55	1.96	5.97	1.74	4.08	3.04	8.76	1.63	3.06 µM	–	–	12	39.4	4.9 µM	0.239
CCCCNC(=O)CC1=C(C)/C(=C/c2[nH]c(-c3ccc[nH]3)cc2OC)N=C1C	2.28	5.43	2.17	7.09	1.9	4	3.29	11.6	–	–	1.72	3.87	1.68	4.04 µM	2.41	7.39	2.83	8.8	–	–
CN(C)C/C=C/C(=O)Nc1ccc(C(=O)Nc2cccc(Nc3ncc(Cl)c(-c4c[nH]c5ccccc45)n3)c2)cc1	0.0212	0.0873	–	–	0.199	0.666	0.0157	0.0397	< 0.0131	–	0.021	0.0682	0.0121	0.0562 µM	0.0284	> 100	0.0602	1.34	0.203 µM	0.0154
CCN1CCCCCCCCCC(=N/O)/C(=N\O)C1	–	> 100	–	> 100	–	> 100	–	> 100	–	> 100	–	–	–	–	–	> 100	–	> 100	–	–
